{"source": "paper PMC11217349", "about": "“Development of Nurr1 agonists from amodiaquine by scaffold hopping and fragment growing” (Communications Chemistry, 2024)", "key": {"[1]": {"molecular_target": "T1, human Nurr1 (hinge region and ligand binding domain) (Homo sapiens, UniProt P43354)", "T1 construct": "expressed in transfected cells; host or cells: HEK293T", "T1 sequence (P43354 360-595 limits assumed)": "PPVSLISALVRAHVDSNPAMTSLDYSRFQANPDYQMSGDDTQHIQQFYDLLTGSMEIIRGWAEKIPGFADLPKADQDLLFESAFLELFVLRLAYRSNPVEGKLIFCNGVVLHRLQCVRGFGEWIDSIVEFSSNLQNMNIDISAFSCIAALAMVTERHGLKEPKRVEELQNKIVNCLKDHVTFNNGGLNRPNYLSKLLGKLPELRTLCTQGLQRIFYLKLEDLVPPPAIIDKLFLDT", "test": "Gal4-Nurr1 hybrid reporter gene assay", "assay_type": "cell-based"}, "[2]": {"molecular_target": "T2, Nurr1-RXR heterodimer (DR5) (Homo sapiens, UniProt P43354)", "T2 construct": "The full-length human nuclear receptor Nurr1 (pcDNA3.1-hNurr1-NE; Addgene plasmid #102363); host or cells: HEK293T", "test": "Full-length Nurr1 reporter gene assay (DR5)", "assay_type": "cell-based", "description": "Activation of full-length human Nurr1 was studied in transiently transfected HEK293T cells using the reporter plasmids pFR-Luc-NBRE[14], pFR-Luc-POMC[14] or pFR-Luc-DR5[14] each containing one copy of the respective human Nurr1 response element NBRE Nl3, NurRE, or DR5. […] After 24 h, the medium was changed to Opti-MEM without supplements, and cells were transiently transfected using Lipofectamine LTX reagent (Invitrogen) according to the manufacturer’s protocol. Five hours after transfection, cells were incubated with the test compounds in Opti-MEM supplemented with penicillin (100 U/mL), streptomycin (100 μg/mL) and 0.1% DMSO for 16 h before luciferase activity was measured using the Dual-Glo Luciferase Assay System (Promega) according to the manufacturer’s protocol on a Tecan Spark luminometer (Tecan Deutschland GmbH). Firefly luminescence was divided by Renilla luminescence and multiplied by 1000 resulting in relative light units (RLU) to normalize for transfection efficiency and cell growth. Fold activation was obtained by dividing the mean RLU of the test compound by the mean RLU of the untreated control. All samples were tested in at least three biologically independent experiments in duplicates. For dose-response curve fitting and calculation of EC50 values, the equation “[Agonist] vs. response -- Variable slope (four parameters)” was used in GraphPad Prism (version 7.00, GraphPad Software)."}, "Aqueous solubility": {"test": "Aqueous solubility", "assay_type": "physicochemical", "conditions": "water, 25 °C, read-out: aq. solubility", "description": "The mixture was agitated in a VWR Thermal Shake lite (VWR International GmbH, Darmstadt, Germany) for 24 h at 600 rpm and a constant temperature of 25 °C. The supersaturated mixtures were subsequently centrifuged at 23.300 rpm for 15 min (25 °C). Part of the supernatant was taken off for quantification by UV absorbance at 312 nm with external calibration. The external calibration samples contained 1% DMSO and the test samples were spiked with DMSO to 1% concentration right before the measurement. Absorbance was measured with a Tecan Spark luminometer (Tecan Deutschland GmbH, Crailsheim, Germany). The solubility test was repeated in three independent experiments."}, "Nur77": {"molecular_target": "T3, Nur77 (Homo sapiens, UniProt P22736)", "T3 construct": "chimeric receptors composed of the Gal4-DBD and the hinge region and LBD; expressed in transfected cells; host or cells: HEK293T", "T3 sequence (P22736 360-595 limits assumed)": "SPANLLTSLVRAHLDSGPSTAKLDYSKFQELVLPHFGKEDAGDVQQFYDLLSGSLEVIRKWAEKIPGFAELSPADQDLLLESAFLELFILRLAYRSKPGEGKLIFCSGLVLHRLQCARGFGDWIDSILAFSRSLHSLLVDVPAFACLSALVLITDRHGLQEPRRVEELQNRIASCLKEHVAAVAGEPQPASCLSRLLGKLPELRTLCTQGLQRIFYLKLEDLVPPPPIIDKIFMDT", "test": "Gal4-Nur77 hybrid reporter gene assay", "assay_type": "cell-based", "conditions": "HEK293T", "description": "Nurr1 modulation was determined in a Gal4 hybrid reporter gene assay in HEK293T cells (German Collection of Microorganisms and Cell Culture GmbH, DSMZ) using pFR-Luc (Stratagene, La Jolla, CA, USA; reporter), pRL-SV40 (Promega, Madison, WI, USA; internal control) and pFA-CMV-hNurr1-LBD[14], coding for the hinge region and ligand binding domain of the canonical isoform of human Nurr1. […] After 24 h, the medium was changed to Opti-MEM without supplements, and cells were transiently transfected using Lipofectamine LTX reagent (Invitrogen, Carlsbad, CA, USA) according to the manufacturer’s protocol. Five hours after transfection, cells were incubated with the test compounds in Opti-MEM supplemented with penicillin (100 U/mL), streptomycin (100 μg/mL), and 0.1% DMSO for 16 h before luciferase activity was measured using the Dual-Glo Luciferase Assay System (Promega) according to the manufacturer’s protocol on a Tecan Spark luminometer (Tecan Deutschland GmbH, Crailsheim, Germany). Firefly luminescence was divided by Renilla luminescence and multiplied by 1000 resulting in relative light units (RLU) to normalize for transfection efficiency and cell growth. Fold activation was obtained by dividing the mean RLU of the test compound by the mean RLU of the untreated control. All samples were tested in at least three biologically independent experiments in duplicates. For dose-response curve fitting and calculation of EC50 values, the equation “[Agonist] vs. response -- Variable slope (four parameters)” was used in GraphPad Prism (version 7.00, GraphPad Software, La Jolla, CA, USA). Selectivity profiling was performed with identical procedures using pFA-CMV-Nur77-LBD[14], pFA-CMV-NOR-1-LBD[14], pFA-CMV-THRα-LBD[51], pFA-CMV-RARα-LBD[52], pFA-CMV-PPARα-LBD[53], pFA-CMV-PPARγ-LBD[53], pFA-CMV-PPARδ-LBD[53], pFA-CMV-LXRα-LBD[54], pFA-CMV-FXR-LBD[55] and pFA-CMV-hRXRα-LBD[56]."}, "PPARα": {"molecular_target": "T4, PPARα (Homo sapiens, UniProt Q07869)", "T4 construct": "chimeric receptors composed of the Gal4-DBD and the hinge region and LBD; expressed in transfected cells; host or cells: HEK293T", "T4 sequence (Q07869 239-466 limits assumed)": "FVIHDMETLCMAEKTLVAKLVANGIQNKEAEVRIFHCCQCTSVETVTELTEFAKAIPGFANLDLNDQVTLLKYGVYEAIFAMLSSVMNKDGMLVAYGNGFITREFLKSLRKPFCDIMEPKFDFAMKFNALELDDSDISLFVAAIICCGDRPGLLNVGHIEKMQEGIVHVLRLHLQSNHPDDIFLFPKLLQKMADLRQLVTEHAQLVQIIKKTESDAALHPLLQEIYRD", "test": "Gal4-hybrid selectivity assay PPARα", "assay_type": "cell-based", "conditions": "3 µM; reference agonist = 100%", "description": "Nurr1 modulation was determined in a Gal4 hybrid reporter gene assay in HEK293T cells (German Collection of Microorganisms and Cell Culture GmbH, DSMZ) using pFR-Luc (Stratagene, La Jolla, CA, USA; reporter), pRL-SV40 (Promega, Madison, WI, USA; internal control) and pFA-CMV-hNurr1-LBD[14], coding for the hinge region and ligand binding domain of the canonical isoform of human Nurr1. […] After 24 h, the medium was changed to Opti-MEM without supplements, and cells were transiently transfected using Lipofectamine LTX reagent (Invitrogen, Carlsbad, CA, USA) according to the manufacturer’s protocol. Five hours after transfection, cells were incubated with the test compounds in Opti-MEM supplemented with penicillin (100 U/mL), streptomycin (100 μg/mL), and 0.1% DMSO for 16 h before luciferase activity was measured using the Dual-Glo Luciferase Assay System (Promega) according to the manufacturer’s protocol on a Tecan Spark luminometer (Tecan Deutschland GmbH, Crailsheim, Germany). Firefly luminescence was divided by Renilla luminescence and multiplied by 1000 resulting in relative light units (RLU) to normalize for transfection efficiency and cell growth. Fold activation was obtained by dividing the mean RLU of the test compound by the mean RLU of the untreated control. All samples were tested in at least three biologically independent experiments in duplicates. […]"}, "Microsomal stability": {"test": "Microsomal stability", "assay_type": "in vitro ADME, rat", "conditions": "for AUC x10^5 (LC-MS peak area of 36 and its demethylated metabolites): incubation of 36 with rat liver microsomes, listed as 36-N(CH3)2", "description": "To determine microsomal stability, test compounds (10 μM) were incubated in 100 mM potassium phosphate buffer at pH 7.4 (total volume of 100 µL) containing 0.5 mg/mL male rat liver microsomes (Sprague-Dawley, no. M9066, Merck KGaA, Darmstadt) and 1 mM NADPH for 0, 15, 30, or 60 min. At the end of the incubation time, microsomal activity was terminated by the addition of 500 µL MeCN and subsequent centrifugation at 1700 g for 5 min. A reaction mixture containing heat-inactivated microsomes (95 °C, 10 min) was prepared as a control for each compound. 5 µL supernatant of each sample was analyzed and the remaining concentrations of the respective test compounds at each time point were determined by LC-MS/MS on an API-3200-QTrap (Sciex) with an Agilent Technologies 1100 series setup including a binary pump (G1311A), a degasser (G1322A), and a Shimadzu SIL 20 A HT autosampler under the control of Analyst 1.6 (Sciex). A XBridge BEH C18 (3.5 µm, 150 mm×3 mm, Waters, protected with a 0.5 µm frit) stationary phase was used in combination with a gradient method starting with 0.1% formic acid in water (A) and MeCN (B) as mobile phase (A:B = 80:20) for 6 min going to A: B = 50:50 after 8 min. 5 µL of supernatant diluted in mobile phase starting conditions was loaded onto the column, separated at a flow rate of 400 µL/min, and detected and quantified per Area of MRM (multiple reaction monitoring) with the following transitions: m/z 381.797/145.000 (34); m/z 395.125/158.200 (36); m/z 409.822/131.000 (41); m/z 407.838/171.100 (42)."}}, "note": "Values joined by “and” are separate entries in the source; they are usually repeats but may differ in a detail not shown here. Equal values may be shown once. “Also recorded” adds a separate entry of the source. Read-outs that look alike come from different tables or passages of the source."}
{"smiles": "Cc1nc2c(Cl)cccn2c1NC(=O)c1ccc(-c2ccccc2)[nH]1", "note": "[Compound 29, N-(8-Chloro-2-methylimidazo[1,2-a]pyridin-3-yl)-5-phenyl-1H-pyrrole-2-carboxamide]", "values": [{"measurement": "highest non-toxic concentration", "setting": "[1]; Gal4-Nurr1 hybrid reporter gene assay, HEK293T", "value": "inactive (10 µM^b)"}, {"measurement": "EC50(Nurr1)", "setting": "[1]; Gal4-Nurr1 hybrid reporter, HEK293T, mean ± SD, n ≥ 3", "value": "inactive (10 µM^b); also recorded: no activation (10 µM)"}, {"measurement": "fold less active than 36 as Nurr1 modulator", "setting": "[1]; no agonism at 10 µM vs EC50 of 36", "value": "at least 100 fold"}, {"measurement": "EC50(DR5)", "setting": "[2]; Nurr1-RXR heterodimer, HEK293T, without bexarotene", "value": "no activation (10 µM)"}, {"measurement": "solubility at 24 h", "setting": "Aqueous solubility", "value": 4.1, "unit": "µg/mL"}, {"measurement": "EC50(Nur77)", "setting": "Nur77", "value": "no activation (10 µM)"}]}
{"smiles": "Cc1nc2c(Cl)cccn2c1NC(=O)c1ccc(-c2ccc(N(C)C)cc2)o1", "note": "[Compound 36, N-(8-Chloro-2-methylimidazo[1,2-a]pyridin-3-yl)-5-(4-(dimethylamino)phenyl)furan-2-carboxamide]", "values": [{"measurement": "EC50", "setting": "[1]; Gal4-Nurr1 hybrid reporter, HEK293T, mean ± SD, n ≥ 3, read-out: EC50(Nurr1)", "value": "90 ± 5", "unit": "nM"}, {"measurement": "EC50", "setting": "[2]; EC50(DR5) [+0.1 µM BEX], Nurr1-RXR heterodimer, in presence of 0.1 µM bexarotene", "value": 32, "unit": "nM"}, {"measurement": "factor of potency enhancement by bexarotene (DR5)", "setting": "[2]; EC50 with 0.1 µM BEX vs without", "value": "> 5"}, {"measurement": "EC50", "setting": "[2]; Nurr1-RXR heterodimer, HEK293T, without bexarotene, read-out: EC50(DR5)", "value": "165 ± 4", "unit": "nM"}, {"measurement": "% rel. act. PPARα", "setting": "PPARα", "value": "1.669% and 2.630% and 1.870%"}, {"measurement": "solubility at 24 h", "setting": "Aqueous solubility", "value": 6.8, "unit": "µg/mL"}, {"measurement": "EC50", "setting": "Nur77", "value": "330 ± 40", "unit": "nM"}, {"measurement": "metabolism by rat liver microsomes (route)", "setting": "Microsomal stability", "value": "almost exclusively degraded by demethylation of the dimethylamino motif"}, {"measurement": "AUC x10^5 (LC-MS peak area of 36 and its demethylated metabolites)", "setting": "Microsomal stability; time 0 min", "value": "7.35 x10^5 and 8.16 x10^5 and 6.56 x10^5 and 7.96 x10^5"}, {"measurement": "AUC x10^5 (LC-MS peak area of 36 and its demethylated metabolites)", "setting": "Microsomal stability; time 15 min", "value": "1.47 x10^5 and 1.4 x10^5 and 1.5 x10^5 and 1.61 x10^5"}, {"measurement": "half-life at 10 µM", "setting": "Microsomal stability; male, Sprague-Dawley, pH 7.4, rat liver microsomes, 10 µM, LCMS", "value": "6.3 ± 0.3", "unit": "min"}]}
